# In patent US11028066B2, “Inhibitors of lysine specific demethylase-1” (CELGENE QUANTICEL RESEARCH, INC., priority 2014, dated 2021):
# pIC50: −log10 of the molar value.
# What was measured:
# Kasumi-1 = Kasumi-1 AML cell line proliferation assay (Cell-MTS assay); type: cell-based; details: Homo sapiens, 168 hours incubation
# Text: Colorimetric cellular assay to assess the ability of LSD-1 small molecule inhibitors to effect the proliferation of the established AML cancer cell line Kasumi-1.
# This Cell-MTS assay is a 7-day plate based colorimetric assay which quantifies the amount of newly generated NADH in the presence and absence of test compound. These NADH levels are used as a proxy for the quantification of cancer cell proliferation.
# The established cancer cell line Kasumi-1 with a verified p53 mutation were purchased from American Type Culture Collection (ATCC) and routinely passaged according to ATCC published protocols. For routine assay these cells were seeded at a density of 20,000 cells per 96-well. 24 hours after plating, cells received an 11 point dilution of test compound with final concentration ranges from 100 μM to 2.0 nM. Cells are incubated in the presence of compound for 168 hours at 37° C., 5% CO2. At the end of this compound incubation period, 80 μl of media is removed and 20 μL of CellTiter 96® AQueous Non-Radioactive Cell Proliferation Assay solution (Promega) is added. The cells are incubated until the OD490 is >0.6. IC50 values are calculated using the IDBS XLfit software package and include background subtracted OD490 values and normalization to DMSO controls.
# Table 5 provides the Kasumi-1 cellular IC50 values of various substituted heterocyclic compounds disclosed herein.
# THP-1 (AML) cells = experiment: LSD1 CD11b cellular assay (flow cytometry); type: cell-based; details: Homo sapiens, THP-1, 96 h; CD11b expressing cells, 4 days incubation
# Protocol: To analyze LSD1 inhibitor efficacy in cells, a CD11b flow cytometry assay was performed. LSD1 inhibition induces CD11b expression in THP-1 (AML) cells which can be measured by flow cytometry. […] LSD1 test compounds were serially diluted in DMSO. The dilutions were added to each well accordingly to a final concentration of 0.2% DMSO. The cells were incubated at 37 degrees Celsius in 5% CO2 for 4 days. 250 μL of each well was transferred to a well in a 96 well round bottom plate. The plate was centrifuged at 1200 rpm at 4 degrees Celsius in a Beckman Coulter Alegra 6KR centrifuge for 5 minutes. The media was removed leaving the cells at the bottom of the wells. The cells were washed in 100 μL cold HBSS (Hank's Balanced Salt Solution) plus 2% BSA (Bovine Serum Albumin) solution and centrifuged at 1200 rpm at 4 degrees Celsius for 5 minutes. The wash was removed. […] The cells were centrifuged and washed two times in 100 μL HBSS plus 2% BSA. After the final spin the cells were resuspended in 100 μL HBSS plus 2% BSA containing 1 ug/mL DAPI (4′,6-diamidino-2-phenylindole). The cells were then analyzed by flow cytometry in a BD FACSAria machine. Cells were analyzed for CD11b expression. The percent of CD11b expressing cells for each inhibitor concentration was used to determine an IC50 curve for each compound analyzed.
# full-length human LSD1 = full-length human LSD1 (Homo sapiens (Human), UniProt O60341); experiment: In vitro enzyme inhibition assay LSD-1 (TR-FRET); type: biochemical; details: H3K4me1-biotin peptide
# Protocol: This assay determines the ability of a test compound to inhibit LSD1 demethylase activity.
# The enzymatic assay of LSD1 activity is based on Time Resolved-Fluorescence Resonance Energy Transfer (TR-FRET) detection.
# Plates were read by EnVision Multilabel Reader in TR-FRET mode (excitation at 320 nm, emission at 615 nm and 665 nm) after 1 hour incubation at room temperature.
# The ability of the compounds disclosed herein to inhibit LSD1 activity was quantified and the respective IC50 value was determined.
pIC50 (THP-1 (AML) cells),pIC50 (full-length human LSD1),SMILES,pIC50 (Kasumi-1)
> 7.00,> 7.00,"Cn1c(-c2ccc(C3CC3)cc2)c(-c2ccc(C#N)cc2)nc(N2CCC(N)CC2)c1=O [Example 33, 4-[6-(4-aminopiperidin-1-yl)-3-(4-cyclopropylphenyl)-4-methyl-5-oxo-4,5-dihydropyrazin-2-yl]benzonitrile]",≥ 7.00
> 7.00,> 7.00,"COCCn1c(-c2ccc(C)cc2)c(-c2ccc(C#N)cc2)nc(N2CCC(N)CC2)c1=O [Example 36, 4-[6-(4-amino-piperidin-1-yl)-4-(2-methoxy-ethyl)-5-oxo-3-p-tolyl-4,5-dihydro-pyrazin-2-yl]-benzonitrile]",≥ 7.00
> 7.00,> 7.00,"Cc1ccc(-c2c(-c3ccc(C#N)c(F)c3)nc(N3CCC(N)CC3)c(=O)n2CCO)cc1 [Example 42, 4-[6-(4-amino-piperidin-1-yl)-4-(2-hydroxy-ethyl)-5-oxo-3-p-tolyl-4,5-dihydro-pyrazin-2-yl]-2-fluoro-benzonitrile]",≥ 7.00
> 7.00,> 7.00,"COc1ccc(-c2c(-c3ccc(C#N)c(F)c3)cc(N3CCC(N)CC3)c(=O)n2C)cc1F [Example 84, 4-[5-(4-aminopiperidin-1-yl)-2-(3-fluoro-4-methoxyphenyl)-1-methyl-6-oxopyridin-3-yl]-2-fluorobenzonitrile]",≥ 7.00
6.00 to 7.00,> 7.00,"CCc1ccc(-c2c(-c3ccc(C#N)cc3)nc(NC[C@H]3CCNC3)c(=O)n2C)cc1 [Example 28, 4-[3-(4-ethylphenyl)-4-methyl-5-oxo-6-{[(3S)-pyrrolidin-3-ylmethyl]amino}-4,5-dihydropyrazin-2-yl]benzonitrile]",≥ 7.00
> 7.00,> 7.00,"Cc1ccc(-c2c(-c3ccc(C#N)c(F)c3)nc(N3CCC(N)CC3)c(=O)n2C)cn1 [Example 66, 4-[6-(4-Amino-piperidin-1-yl)-4-methyl-3-(6-methyl-pyridin-3-yl)-5-oxo-4,5-dihydro-pyrazin-2-yl]-2-fluoro-benzonitrile]",≥ 7.00
5.00 to 6.00,> 7.00,"N#Cc1ccc(-c2cn(Cc3cccc(Cl)c3)c(=O)c(N3CCC(N)CC3)n2)cc1 [Example 4, 4-[6-(4-aminopiperidin-1-yl)-4-(3-chloro-benzyl)-5-oxo-4,5-dihydro-pyrazin-2-yl]-benzonitrile]",–
> 7.00,> 7.00,"COCCCn1c(-c2ccc(C)cc2)c(-c2ccc(C#N)cc2)nc(N2CCC(N)CC2)c1=O [Example 39, 4-[6-(4-amino-piperidin-1-yl)-4-(3-methoxy-propyl)-5-oxo-3-p-tolyl-4,5-dihydro-pyrazin-2-yl]-benzonitrile]",–
> 7.00,> 7.00,"CCn1c(-c2ccc(C)cc2)c(-c2ccc(C#N)cc2)nc(N2CCC(N)CC2)c1=O [Example 26, 4-[6-(4-aminopiperidin-1-yl)-4-ethyl-3-(4-methylphenyl)-5-oxo-4,5-dihydropyrazin-2-yl]benzonitrile]",–
> 7.00,> 7.00,"Cc1ccc(-c2c(-c3ccc(C#N)nc3)nc(N3CCC(N)CC3)c(=O)n2C)cc1 [Example 19, 5-[6-(4-aminopiperidin-1-yl)-4-methyl-3-(4-methylphenyl)-5-oxo-4,5-dihydropyrazin-2-yl]pyridine-2-carbonitrile]",–
> 7.00,> 7.00,"CNC1CCN(c2cc(-c3ccc(C#N)cc3)c(-c3ccc(OC)cc3)n(C)c2=O)CC1 [Example 78, 4-{2-(4-methoxyphenyl)-1-methyl-5-[4-(methylamino)piperidyl]-6-oxo-3-hydropyridyl}benzenecarbonitrile]",–
6.00 to 7.00,> 7.00,"COc1ccc(-c2c(-c3ccc(C#N)nc3)cc(NC[C@H]3CCNC3)c(=O)n2C)cc1 [Example 69, (S)-5-(2-(4-methoxyphenyl)-1-methyl-6-oxo-5-(pyrrolidin-3-ylmethylamino)-1,6-dihydropyridin-3-yl)picolinonitrile]",–
> 7.00,> 7.00,"COc1ccc(-c2c(-c3ccc(C#N)cc3)cc(N3CCC(N)CC3)c(=O)n2CC2CC2)cc1 [Example 81, 4-[5-(4-aminopiperidin-1-yl)-1-(cyclopropylmethyl)-2-(4-methoxyphenyl)-6-oxopyridin-3-yl]benzonitrile]",–
> 7.00,> 7.00,"Cn1c(-c2ccc(OC(F)(F)F)cc2)c(-c2ccc(C#N)c(F)c2)nc(NC[C@H]2CCNC2)c1=O [Example 63, 2-fluoro-4-[4-methyl-5-oxo-6-[((3S)-pyrrolidin-3-ylmethyl)-amino]-3-(4-trifluoromethoxy-phenyl)-4,5-dihydro-pyrazin-2-yl]-benzonitrile]",–
5.00 to 6.00,> 7.00,"C[C@H](c1ccccc1)n1cc(-c2ccc(C#N)cc2)nc(N2CCC(N)CC2)c1=O [Example 12, 4-[6-(4-aminopiperidin-1-yl)-5-oxo-4-[(1R)-1-phenylethyl]-4,5-dihydropyrazin-2-yl]benzonitrile]",–
6.00 to 7.00,> 7.00,"N#Cc1ccc(-c2cn(CC3CCOC3)c(=O)c(N3CCC(N)CC3)n2)cc1F (stereo not drawn) [Example 14, 4-[6-(4-amino-piperidin-1-yl)-5-oxo-4-(tetrahydro-furan-3-ylmethyl)-4,5-dihydro-pyrazin-2-yl]-2-fluoro-benzonitrile]",–
> 7.00,> 7.00,"CNC1CCN(c2cc(-c3ccc(C#N)c(F)c3)c(-c3ccc(OC)c(F)c3)n(C)c2=O)CC1 [Example 86, 2-fluoro-4-[2-(3-fluoro-4-methoxyphenyl)-1-methyl-5-[4-(methylamino)piperidin-1-yl]-6-oxopyridin-3-yl]benzonitrile]",–
6.00 to 7.00,> 7.00,"Cc1ccc(Cn2cc(-c3ccc(C#N)cc3)nc(N3CCC(N)CC3)c2=O)cc1 [Example 2, 4-[6-(4-aminopiperidin-1-yl)-4-[(4-methylphenyl)methyl]-5-oxo-4,5-dihydropyrazin-2-yl]benzonitrile]",–
5.00 to 6.00,> 7.00,"N#Cc1ccc(-c2cn(CC3CC3)c(=O)c(N3CCC(N)CC3)n2)cc1F [Example 7, 4-[6-(4-amino-piperidin-1-yl)-4-cyclopropylmethyl-5-oxo-4,5-dihydro-pyrazin-2-yl]-2-fluoro-benzonitrile]",–
> 7.00,> 7.00,"COc1ccc(-c2c(-c3ccc(C#N)c(F)c3)nc(N3CCC(N)CC3)c(=O)n2C)cc1 [Example 52, 4-[6-(4-amino-piperidin-1-yl)-3-(4-methoxy-phenyl)-4-methyl-5-oxo-4,5-dihydro-pyrazin-2-yl]-2-fluoro-benzonitrile]",–
> 7.00,> 7.00,"Cc1ccc(-c2c(-c3ccc(C#N)cc3)nc(NC[C@@H]3CCNC3)c(=O)n2C)cc1 [Example 18, 4-[4-methyl-3-(4-methylphenyl)-5-oxo-6-{[(3R)-pyrrolidin-3-ylmethyl]amino}-4,5-dihydropyrazin-2-yl]benzonitrile]",–
> 7.00,> 7.00,"Cn1c(-c2ccc(C3CC3)cc2)c(-c2ccc(C#N)c(F)c2)nc(NC[C@H]2CCNC2)c1=O [Example 59, 4-{3-(4-cyclopropyl-phenyl)-4-methyl-5-oxo-6-[((3S)-pyrrolidin-3-ylmethyl)-amino]-4,5-dihydro-pyrazin-2-yl}-2-fluoro-benzonitrile]",–
> 7.00,> 7.00,"CNC1CCN(c2nc(-c3ccc(C#N)cc3)c(-c3ccc(C)cc3)n(C)c2=O)CC1 [Example 20, 4-{4-methyl-6-[4-(methylamino)piperidin-1-yl]-3-(4-methylphenyl)-5-oxo-4,5-dihydropyrazin-2-yl}benzonitrile]",–
6.00 to 7.00,> 7.00,"CCc1ccc(-c2c(-c3ccc(C#N)cc3)nc(NC[C@@H]3CCNC3)c(=O)n2C)cc1 [Example 29, 4-[3-(4-ethylphenyl)-4-methyl-5-oxo-6-{[(3R)-pyrrolidin-3-ylmethyl]amino}-4,5-dihydropyrazin-2-yl]benzonitrile]",–
